# Experimental data taken from patent US20070116781A1, “Hydrogen Cyanamide Pesticide Formulations” (priority 2005, published 2007).
# Experiments:
# crabgrass = assay: Herbicidal activity, phosphate-free cyanamide and propionic acid, post-emergence, uncovered pots; type: in vivo, Digitaria sanguinalis; settings: for Weeds Per Pot: Crabgrass: cyanamide 150 mg/kg soil
# Source text: (§1) The procedures in this example differed from those of Example 2, however, by the use of hydrogen cyanamide crystals free of phosphate ion to prepare the aqueous hydrogen cyanamide solution, by the use of post-emergence application, and by the omission of any covering of the pots during any part of the test. Observations were made for total weed growth, and individual observations were also made for yellow nutsedge, crabgrass, sicklepod, and momingglory. Stock solutions of hydrogen cyanamide at 1.25% by weight and propionic acid at 5.0% by weight, both in water, were prepared as before, except that the hydrogen cyanamide solution, as noted above, was prepared by dissolving hydrogen cyanamide crystals in water in the absence of phosphate ion. […] The weeds were allowed to grow for three weeks before the treatment chemicals were applied. […] Data analyses were performed in the same manner as Examples 1 and 2. Table IX lists the results in weeds per pot for all weeds, Table X for yellow nutsedge, Table XI for crabgrass, Table XII for sicklepod, and Table XIII for morningglory, all both with propionic acid alone at various application […]
# reniform nematodes = assay: Nematicidal activity in covered pots of naturally infested silt loam, soybean planted after 12 days; type: in vivo, Rotylenchulus reniformus
# Description: (§2) In this study, the soil was naturally infested with four species of nematodes, two of which were deleterious and two beneficial, and observations were made of both the nematode survival and the growth of the soybean plants.
# (§3) Stock solutions of hydrogen cyanamide at 1.0% by weight and propionic acid at 5.0% by weight, both in water, were prepared, the hydrogen cyanamide from a phosphate-buffered 50% aqueous solution. Planting pots measuring 10 cm in diameter, each containing 1 kg of soil, were used. The soil was silt loam from a cotton field, pH 6.2, CEC<10 meq/100 g soil, organic matter<1.0%. The treatment chemicals were combined in various dilutions such that 100 mL of the combined dilutions contained the desired amount of each chemical for each test. The combined dilutions were then applied to the soil surface in each pot, at 100 mL of combined dilution per pot. The dilutions were selected to achieve target application rates expressed in milligrams of the treatment chemical per kilogram of soil, with 1 milligram of treatment chemical per kilogram of soil being approximately equal to 2 kilograms of the chemical per hectare of soil or 2 pounds of the chemical per acre of soil.
# (§4) Immediately after the treatment chemicals were applied, each pot was covered by a thick (1.5 mil), clear, low-density polyethylene bag. After twelve days, the bags were removed and soil samples were taken from each pot for nematological analysis by the salad bowl technique of Rodriguez-Kabana, R., and M. H. Pope, Nematropica, 11: 175-186 (1981). The results of these analyses are listed in Table I as pre-plant test results. The results for the two deleterious nematodes are also shown as plots of the number of nematodes vs. the hydrogen cyanamide application rate in FIGS. 1 and 2.
# (§5) After the polyethylene bags were removed, each pot was planted with Hutcheson soybean seeds at 5 seeds per pot, and the seeds were allowed to germinate and the plants to grow for 45 days. The resulting plants were then removed from the pots, the root systems were washed, and the number of plants in each pot was determined. The weights of both fresh shoots and roots were also determined as well as the shoot height and the relative health of the root system, using a subjective index. Soil samples were also collected, and the soil and roots were incubated to determine nematode populations. Treatments were arranged in randomized complete block design with seven replications per treatment, and statistical evaluation of the data was performed with analyses of variance (ANOVA) and standard regression procedures. Fischer's Least Significant Difference at p 0.05 was calculated when appropriate. The results of these tests are listed as final test results in Tables II, III, and IV, with nematode populations in the soil listed in Table II, the nematode populations in the root systems in Table III, and the plant and root parameters of the soybean shoots in Table IV.
# all weeds = assay: Herbicidal activity, phosphate-free cyanamide and propionic acid, post-emergence, uncovered pots; type: in vivo; settings: for Weeds Per Pot: All Weeds: cyanamide 150 mg/kg soil
# Source text: as §1
# yellow nutsedge = assay: as above; type: in vivo, Cyperus esculentus; settings: for Weeds Per Pot: Yellow Nutsedge: cyanamide 150 mg/kg soil
# Source text: as §1
# spiral nematodes = assay: Nematicidal activity in covered pots of naturally infested silt loam, soybean planted after 12 days; type: in vivo, Helicotylenchus dihystera
# Description: as §2, §3, §4, §5
# sicklepod = assay: Herbicidal activity, phosphate-free cyanamide and propionic acid, post-emergence, uncovered pots; type: in vivo, Senna obtusifolia; settings: for Weeds Per Pot: Sicklepod: cyanamide 150 mg/kg soil
# Source text: The procedures in this example differed from those of Example 2, however, by the use of hydrogen cyanamide crystals free of phosphate ion to prepare the aqueous hydrogen cyanamide solution, by the use of post-emergence application, and by the omission of any covering of the pots during any part of the test. Observations were made for total weed growth, and individual observations were also made for yellow nutsedge, crabgrass, sicklepod, and momingglory. Stock solutions of hydrogen cyanamide at 1.25% by weight and propionic acid at 5.0% by weight, both in water, were prepared as before, except that the hydrogen cyanamide solution, as noted above, was prepared by dissolving hydrogen cyanamide crystals in water in the absence of phosphate ion. […] The weeds were allowed to grow for three weeks before the treatment chemicals were applied. […] Data analyses were performed in the same manner as Examples 1 and 2. Table IX lists the results in weeds per pot for all weeds, Table X for yellow nutsedge, Table XI for crabgrass, Table XII for sicklepod, and Table XIII for morningglory, all both with propionic acid alone at various application rates and with […]
# [1] = hydrogen cyanamide 125 mg/kg of soil alone, all intervals
# [2] = 12 d after treatment, pre-plant, cyanamide 20 mg/kg soil
# [3] = 12 d after treatment, pre-plant, cyanamide 40 mg/kg soil
# [4] = 12 d after treatment, pre-plant, cyanamide 60 mg/kg soil
# [5] = 12 d after treatment, pre-plant, cyanamide 80 mg/kg soil
# [6] = 12 d after treatment, pre-plant, cyanamide 120 mg/kg soil
# [7] = 57 d after treatment, 45 d after planting, cyanamide 20 mg/kg soil
# [8] = 57 d after treatment, 45 d after planting, cyanamide 40 mg/kg soil
# [9] = 57 d after treatment, 45 d after planting, cyanamide 60 mg/kg soil
# [10] = 57 d after treatment, 45 d after planting, cyanamide 80 mg/kg soil
# [11] = 57 d after treatment, 45 d after planting, cyanamide 120 mg/kg soil
# [12] = 57 d after treatment, cyanamide 20 mg/kg soil
# [13] = 57 d after treatment, cyanamide 40 mg/kg soil
# [14] = 57 d after treatment, cyanamide 60 mg/kg soil
# [15] = 57 d after treatment, cyanamide 80 mg/kg soil
# [16] = 57 d after treatment, cyanamide 120 mg/kg soil
compound,measurement,setting,value
"N#CN [Cyanamide, hydrogen cyanamide]",Weeds Per Pot: Crabgrass,crabgrass; 6 d after treatment,0
same,Weeds Per Pot: Crabgrass,crabgrass; 13 d after treatment,0.4
same,Weeds Per Pot: Crabgrass,crabgrass; 20 d after treatment,0.3
same,Crabgrass weeds per pot,crabgrass; [1],about one or fewer crabgrass weeds per pot
same,Surviving Nematodes: Reniform,reniform nematodes; [2],274 per 100 mL of soil
same,Surviving Nematodes: Reniform,reniform nematodes; [3],191 per 100 mL of soil
same,Surviving Nematodes: Reniform,reniform nematodes; [4],102 per 100 mL of soil
same,Surviving Nematodes: Reniform,reniform nematodes; [5],120 per 100 mL of soil
same,Surviving Nematodes: Reniform,reniform nematodes; [6],16 per 100 mL of soil
same,Surviving Nematodes: Reniform,reniform nematodes; [7],240 per 100 mL of soil
same,Surviving Nematodes: Reniform,reniform nematodes; [8],190 per 100 mL of soil
same,Surviving Nematodes: Reniform,reniform nematodes; [9],167 per 100 mL of soil
same,Surviving Nematodes: Reniform,reniform nematodes; [10],354 per 100 mL of soil
same,Surviving Nematodes: Reniform,reniform nematodes; [11],95 per 100 mL of soil
same,Surviving Nematodes in Root System: Reniform,reniform nematodes; [12],25.7 Per Pot
same,Surviving Nematodes in Root System: Reniform,reniform nematodes; [13],9.6 Per Pot
same,Surviving Nematodes in Root System: Reniform,reniform nematodes; [14],13.4 Per Pot
same,Surviving Nematodes in Root System: Reniform,reniform nematodes; [15],19.4 Per Pot
same,Surviving Nematodes in Root System: Reniform,reniform nematodes; [16],4.3 Per Pot
same,Weeds Per Pot: All Weeds,all weeds; 6 d after treatment,6.3
same,Weeds Per Pot: All Weeds,all weeds; 13 d after treatment,7.7
same,Weeds Per Pot: All Weeds,all weeds; 20 d after treatment,10.1
same,Total weeds per pot,all weeds; [1],less than ten total weeds per pot
same,Weeds Per Pot: Yellow Nutsedge,yellow nutsedge; 6 d after treatment,2.4
same,Weeds Per Pot: Yellow Nutsedge,yellow nutsedge; 13 d after treatment,4.6
same,Weeds Per Pot: Yellow Nutsedge,yellow nutsedge; 20 d after treatment,6
same,Yellow nutsedge weeds per pot,yellow nutsedge; [1],about six or fewer yellow nutsedge weeds per pot
same,Surviving Nematodes: Spiral,spiral nematodes; [2],102 per 100 mL of soil
same,Surviving Nematodes: Spiral,spiral nematodes; [3],95 per 100 mL of soil
same,Surviving Nematodes: Spiral,spiral nematodes; [4],59 per 100 mL of soil
same,Surviving Nematodes: Spiral,spiral nematodes; [5],76 per 100 mL of soil
same,Surviving Nematodes: Spiral,spiral nematodes; [6],18 per 100 mL of soil
same,Surviving Nematodes: Spiral,spiral nematodes; [7],6.7 per 100 mL of soil
same,Surviving Nematodes: Spiral,spiral nematodes; [8],3.7 per 100 mL of soil
same,Surviving Nematodes: Spiral,spiral nematodes; [9],2.9 per 100 mL of soil
same,Surviving Nematodes: Spiral,spiral nematodes; [10],9.8 per 100 mL of soil
same,Surviving Nematodes: Spiral,spiral nematodes; [11],4.7 per 100 mL of soil
same,Surviving Nematodes in Root System: Spiral,spiral nematodes; [12],42.3 Per Pot
same,Surviving Nematodes in Root System: Spiral,spiral nematodes; [13],38.6 Per Pot
same,Surviving Nematodes in Root System: Spiral,spiral nematodes; [14],42 Per Pot
same,Surviving Nematodes in Root System: Spiral,spiral nematodes; [15],28 Per Pot
same,Surviving Nematodes in Root System: Spiral,spiral nematodes; [16],16 Per Pot
same,Weeds Per Pot: Sicklepod,sicklepod; 6 d after treatment,0.6
same,Weeds Per Pot: Sicklepod,sicklepod; 13 d after treatment,1.4
same,Weeds Per Pot: Sicklepod,sicklepod; 20 d after treatment,1
same,Sicklepod weeds per pot,sicklepod; [1],about one or fewer sicklepod weeds per pot
